One test relates to Norepinephrine. In words: Biological amine levels by HPLC-ECD after 45 min: norepinephrine. The test is classed as in vivo, mice. On the procedure:
Test Substances: […] Animals: Male Laca mice. Test Procedures: Animals were sacrificed after 45 min of drug administration similar to the time period of behavioral observations. HPLC-ECD detector: Mobile phase—Phosphate buffer: […] • Column—ODS-3 C-18 column (250×4.6 mm I.D.; 5 μm particle size)

A further test concerns Male Laca mice. Kind of test: Porsolt Forced Swim test (behavioural despair test). It counts as in vivo. On the procedure: Method: Porsolt Forced Swim test (also called behavioural despair test)
Animals are subjected to two trials during which they are force to swim in an acrylic glass cylinder filled with water and from which they cannot escape. The first trial lasts 15 minutes. Then, after 24-hours, a second trial is performed which lasts 5 minutes. The time that the animal spends without moving in the second trial is measured. This immobility time is decreased by antidepressants.
After some time, the mice give up the attempt to escape from the water and subside into immobility. The duration of the immobility is measured. An animal was considered to be immobile whenever it remained floating passively in the water in a slightly hunched but upright position, its nose above the water surface. […] The total immobility period during the 6-min test was recorded with the help of stopwatch.
The immobility period data obtained from tables 1, 2 and 3 is plotted against the dose administered in FIG. 1, FIG. 2 and FIG. 3 respectively, as shown in the drawing accompanying this specification.
Test Procedures: Porsolt Forced Swim test. Rectangular glass jar (25×12×25 cm^3) containing 15 cm of water maintained at 24±1° C.
The immobility period data obtained from Tables 4, 5, 6 and 7 is plotted against the dose administered in FIG. 4, FIG. 5, FIG. 6 and FIG. 7 respectively, as shown in the drawing accompanying this specification.

The test system of test [1] is serotonin (5-HT) as well as dopamine levels. Particulars: mice; cited from earlier work.
The subject of test [2] is monoamine oxidase enzymes. The settings on record: mice; cited from earlier work.

The structures appear in SMILES notation.

For `COc1cc(C=CC(=O)CC(=O)C=Cc2ccc(O)c(OC)c2)ccc1O` [Curcumin, 1,7-bis(4-hydroxy-3-methoxyphenyl)-1,6-heptadien-3,5-dione], the “Norepinephrine % increase w.r.t Control” value with Norepinephrine (dose 100 mg/kg) is 67.90%. The “Norepinephrine % increase w.r.t Fluoxetine” value with Norepinephrine (dose 100 mg/kg vs fluoxetine 10 mg/kg) came out at 19.18%. In addition, in the test on Norepinephrine (dose 100 mg/kg, sacrificed after 45 min, n = 5), the “Norepinephrine (ng/mg tissue)” value worked out at 4.97 ± 0.33a ng/mg tissue. Besides, the “Potentiation with sub-effective dose of desipramine” value in the test with Male Laca mice (50 mg/kg with desipramine 5 mg/kg) is “failed to show any potentiation”. The “Potentiated effect with sub-effective dose of tranylcypromine” value with Male Laca mice (50 mg/kg with tranylcypromine 5 mg/kg) is “None”. Besides, the “% Decrease in immobility w.r.t saline treated group” value in the test with Male Laca mice (Table 1, dose 50 mg/kg) came out at 22.55%; with Male Laca mice (Table 2, dose 100 mg/kg), 9.89%; with Male Laca mice (Table 3, dose 200 mg/kg) it was 31.10%. The “Immobility period (in seconds)” value is listed as 171.8 ± 10.87^ seconds in the test with Male Laca mice (Table 1, dose 50 mg/kg) and 171.8 ± 10.87^ seconds in the test with Male Laca mice (Table 4, alone, 50 mg/kg). Further, the “Immobility period” value was determined as 174.2 ± 15.17 s with Male Laca mice (Table 2, dose 100 mg/kg); 133.2 ± 26.82 s with Male Laca mice (Table 3, dose 200 mg/kg); 160.33 ± 19.09 s in the test with Male Laca mice (Table 5, alone, 50 mg/kg); 215.50 ± 13.97 s in the test on Male Laca mice (Table 6, alone, 50 mg/kg); 262.25 ± 11.89 s in the test with Male Laca mice (Table 7, alone, 50 mg/kg). Moreover, the “% Decrease in immobility w.r.t saline group” value with Male Laca mice (Table 4, alone, 50 mg/kg) is reported as 12.79%. The “% Decrease in immobility w.r.t vehicle group” value in the test with Male Laca mice (Table 5, alone, 50 mg/kg) is 24.46%; with Male Laca mice (Table 6, alone, 50 mg/kg), 15.90%; in the test with Male Laca mice (Table 7, alone, 50 mg/kg), 4.91%. For the same compound, the “Serotonin (5-HT) and dopamine levels” value in test [1] is reported as “increases serotonin (5-HT) as well as dopamine levels”. Further, the Monoamine oxidase enzymes result in test [2] is recorded as “inhibited the monoamine oxidase enzymes”.

(Values after US9259401B2 (priority 2011, dated 2016).)
